ChEMBL document CHEMBL1141502, “Synthesis of hybrid acetogenins, alpha,beta-unsaturated-gamma-lactone-free nitrogen-containing heterocyclic analogues, and their cytotoxicity against human cancer cell lines” (2008)

How the values were obtained:
Format in all cases: functional
[1] = Antiproliferative activity against human HBC4 cells by sulforhodamine B assay relative to control
[2] = Antiproliferative activity against human BSY1 cells by sulforhodamine B assay relative to control; settings: BSY-1
[3] = Antiproliferative activity against human HBC5 cells by sulforhodamine B assay relative to control
[4] = tested on: MCF7; experiment: Antiproliferative activity against human MCF7 cells by sulforhodamine B assay relative to control
[5] = tested on: MDA-MB-231; experiment: Antiproliferative activity against human MDA-MB-231 cells by sulforhodamine B assay relative to control
[6] = tested on: U-251; experiment: Antiproliferative activity against human U251 cells by sulforhodamine B assay relative to control
[7] = tested on: SF-268; experiment: Antiproliferative activity against human SF268 cell by sulforhodamine B assay relative to control
[8] = tested on: SF-295; experiment: Antiproliferative activity against human SF295 cells by sulforhodamine B assay relative to control
[9] = tested on: SF-539; experiment: Antiproliferative activity against human SF539 cells by sulforhodamine B assay relative to control
[10] = tested on: SNB-75; experiment: Antiproliferative activity against human SNB75 cells by sulforhodamine B assay relative to control
[11] = tested on: SNB-78; experiment: Antiproliferative activity against human SNB78 cells by sulforhodamine B assay relative to control
[12] = tested on: HCC 2998; experiment: Antiproliferative activity against human HCC2998 cells by sulforhodamine B assay relative to control
[13] = tested on: KM12; experiment: Antiproliferative activity against human KM12 cells by sulforhodamine B assay relative to control
[14] = tested on: HT-29; experiment: Antiproliferative activity against human HT29 cells by sulforhodamine B assay relative to control
[15] = tested on: HCT-15; experiment: Antiproliferative activity against human HCT15 cells by sulforhodamine B assay relative to control
[16] = tested on: HCT-116; experiment: Antiproliferative activity against human HCT116 cells by sulforhodamine B assay relative to control
[17] = tested on: NCI-H23; experiment: Antiproliferative activity against human NCI-H23 cells by sulforhodamine B assay relative to control
[18] = tested on: NCI-H226; experiment: Antiproliferative activity against human NCI-H226 cells by sulforhodamine B assay relative to control
[19] = tested on: NCI-H522; experiment: Antiproliferative activity against human NCI-H522 cells by sulforhodamine B assay relative to control
[20] = tested on: NCI-H460; experiment: Antiproliferative activity against human NCI-H460 cells by sulforhodamine B assay relative to control
[21] = tested on: A549; experiment: Antiproliferative activity against human A549 cells by sulforhodamine B assay relative to control
[22] = tested on: DMS-273; experiment: Antiproliferative activity against human DMS273 cells by sulforhodamine B assay relative to control
[23] = tested on: DMS-114; experiment: Antiproliferative activity against human DMS114 cells by sulforhodamine B assay relative to control
[24] = tested on: LOX IMVI; experiment: Antiproliferative activity against human LOX IMVI cells by sulforhodamine B assay relative to control
[25] = Antiproliferative activity against human OVACR3 cells by sulforhodamine B assay relative to control
[26] = Antiproliferative activity against human OVACR4 cells by sulforhodamine B assay relative to control
[27] = Antiproliferative activity against human OVACR5 cells by sulforhodamine B assay relative to control
[28] = Antiproliferative activity against human OVACR8 cells by sulforhodamine B assay relative to control
[29] = tested on: SK-OV-3; experiment: Antiproliferative activity against human SKOV3 cells by sulforhodamine B assay relative to control
[30] = Antiproliferative activity against human RXF631L cells by sulforhodamine B assay relative to control; settings: RXF 631
[31] = tested on: ACHN; experiment: Antiproliferative activity against human ACHN cells by sulforhodamine B assay relative to control
[32] = tested on: St-4; experiment: Antiproliferative activity against human St4 cells by sulforhodamine B assay relative to control
[33] = Antiproliferative activity against human MKN1 cells by sulforhodamine B assay relative to control; settings: MKN-1
[34] = tested on: MKN-7; experiment: Antiproliferative activity against human MKN7 cells by sulforhodamine B assay relative to control
[35] = tested on: MKN-28; experiment: Antiproliferative activity against human MKN28 cells by sulforhodamine B assay relative to control
[36] = tested on: MKN-45; experiment: Antiproliferative activity against human MKN45 cells by sulforhodamine B assay relative to control
[37] = tested on: MKN-74; experiment: Antiproliferative activity against human MKN74 cells by sulforhodamine B assay relative to control
[38] = tested on: DU-145; experiment: Antiproliferative activity against human DU145 cells by sulforhodamine B assay relative to control
[39] = tested on: PC-3; experiment: Antiproliferative activity against human PC3 cells by sulforhodamine B assay relative to control

CCCCCCCCCCCC[C@@H](O)[C@H]1CC[C@H]([C@H](O)CCCCCCCCCCCCC2=C[C@H](C)OC2=O)O1 [REL-SOLAMIN]
GI50 [1]: > 100 µM
GI50 [2]: > 100 µM
GI50 [3]: > 100 µM
GI50 [4]: 71 µM
GI50 [5]: > 100 µM
GI50 [6]: > 100 µM
GI50 [7]: > 100 µM
GI50 [8]: 40 µM
GI50 [9]: > 100 µM
GI50 [10]: > 100 µM
GI50 [11]: > 100 µM
GI50 [12]: > 100 µM
GI50 [13]: > 100 µM
GI50 [14]: > 100 µM
GI50 [15]: > 100 µM
GI50 [16]: > 100 µM
GI50 [17]: 73 µM
GI50 [18]: > 100 µM
GI50 [19]: 58 µM
GI50 [20]: > 100 µM
GI50 [21]: > 100 µM
GI50 [22]: > 100 µM
GI50 [23]: 4.3 µM
GI50 [24]: 29 µM
GI50 [25]: > 100 µM
GI50 [26]: > 100 µM
GI50 [27]: > 100 µM
GI50 [28]: > 100 µM
GI50 [29]: > 100 µM
GI50 [30]: > 100 µM
GI50 [31]: > 100 µM
GI50 [32]: > 100 µM
GI50 [33]: > 100 µM
GI50 [34]: 13 µM
GI50 [35]: 14 µM
GI50 [36]: > 100 µM
GI50 [37]: > 100 µM
GI50 [38]: > 100 µM
GI50 [39]: > 100 µM
